A word on the melting point: it is the temperature of the solid-liquid transition.

This note sets out measurements from a melting point compilation (Tetko et al.; mined from patent text by program, amines drawn as free bases though some values may be those of a salt).

As to `NC(=S)NCc1cccs1`, the melting point fell in the range of 99 to 101 °C.

`O=C1CC2Cc3cc(N4CCCCC4)ccc3C2=NN1` (stereo not drawn) came in with a melting point of 252 to 254 °C.

`Cc1c(C(=O)Nc2ccc(N3CCN(CCO)CC3)c(C#N)c2)cnn1-c1ccc(Cl)c(Cl)c1` returned a melting point of 195 to 197 °C.

The compound `Cc1nc2ccc3c(c2o1)OC(CN1C2CCC1CC(O)(c1ccc4ccccc4c1)C2)CO3` (stereo not drawn) yielded a melting point of 192 to 195 °C.

Regarding `Cc1cc(-c2cc(C(F)(F)F)nn2-c2ccc(S(N)(=O)=O)c(F)c2)ccc1-c1ccco1`, the melting point lay within 78 to 80 °C.

For the compound `C#CCNC(=O)c1nn(-c2c(Cl)cc(C(F)(F)F)cc2Cl)c(N)c1S(=O)C(F)(F)F` (stereo not drawn), the melting point was 207 °C.

Take `N#CC=Cc1ccc(Cl)c(Cl)c1`: the melting point is 98.2 °C.

Regarding `c1cnc2[nH]cc(CN3CCN(c4ccc5[nH]ccc5c4)CC3)c2c1`, the melting point was in the range of 232 to 233 °C.

Consider `CCCC1=C(C(=O)O)C(CC)n2ncc(C(=O)OCC)c2N1` (stereo not drawn), for which the melting point lay within 160 to 161 °C.

As to `O=C(NCc1c[nH]c(=S)n1[C@H]1CCc2c(F)cc(F)cc2C1)c1cccnc1`, the melting point is 218 to 221 °C.

Compound `CCN1CCCC1CNC(=O)c1cc(N(C)S(=O)(=O)CC)ccc1OC` (stereo not drawn) showed a melting point of 85 to 87 °C.

For `Nc1ccc(SC(F)(F)F)cc1[N+](=O)[O-]`, the melting point came to 86 °C.

The compound `CC(C)(C)NCC(O)COc1ccc(-c2csnn2)cc1` (stereo not drawn) gave a melting point of 124 to 125 °C.

In turn, `CC(C)Cn1c(CNC(=O)OC(C)(C)C)c(-c2ccccc2)c2cc(OCc3ccccc3)ccc2c1=O` registered a melting point of 141 to 142 °C.

`COC(=O)c1ccc(Cl)c(C2(O)C(=O)N(Cc3ccc(OC)cc3OC)c3ccc(Cl)cc32)c1` (stereo not drawn): the melting point is 56 °C.

Compound `CC(C)c1cccc(C(C)C)c1N1C(=O)C(c2ccccc2)=C(c2ccccc2)C1=O` had a melting point of 233 to 234 °C.

With `CN(C)c1ccc2c(c1)Sc1cc(OC(=O)c3ccccc3)ccc1N2C(=O)c1ccccc1`, the melting point lay within 194 to 200 °C.

With `CCCCOC(=O)C=C(C)C=CC=C(C)C=Cc1c(C)cc(OC)c(C)c1C`, the melting point lay in the range of 80 to 81 °C.

`CC(CN=C1c2cccc3cccc(c23)N1C(c1ccccc1)c1ccccc1)Cn1ccnc1` (stereo not drawn): the melting point was 51 to 56 °C.

With `CCCCCCCCCCCCSc1nnn[nH]1`, the melting point was 85 to 87 °C.

With `O=C(c1ccc(Br)cc1)c1ccc([N+](=O)[O-])cc1`, the melting point lay in the range of 123 to 124 °C.

Consider `N#Cc1cc([N+](=O)[O-])ccc1-c1ccccc1`, for which the melting point was 111 to 115 °C.

Consider `Cc1ccc(S(=O)(=O)OCC2Cn3c(nc4c(C)cccc43)-c3cccc(Cl)c3O2)cc1` (stereo not drawn), for which the melting point was in the range of 168 to 169 °C.

In the case of `COC(=O)CCCCCCCCCCCCCCC=O`, the melting point was 41.5 °C.

`COCCNC(=O)c1cccc(-c2cccc3cc(Cc4cccc(C(C)=O)c4)sc23)c1` gave a melting point of 81 to 82 °C.

With `Cc1nc2cnc(N3CCN(CCCC(=O)c4ccc(F)cc4)CC3)cc2[nH]1`, the melting point lay in the range of 180 to 183 °C.

In the case of `Cc1ccn2c(C)c(-c3ccc4sc(=O)n(Cc5cccnc5)c4c3)nc2c1`, the melting point is 201 to 202 °C.

As for `C[C@H](NS(=O)(=O)C12CC3CC(CC(C3)C1)C2)C(=O)N1CCC[C@H]1C(=O)Nc1ccccc1`, the melting point was 138 to 141 °C.

`Cc1ccc(S(=O)(=O)NC2CCCC2NC(=O)OC(C)(C)C)cc1` (stereo not drawn) gave a melting point of 129 to 130 °C.

In turn, `CCOC(=O)Cc1nc(-c2ccccc2)n(C)n1` came in with a melting point of 82 to 83 °C.

For `CN1N=C(c2ccc(F)cc2)c2cc3nsnc3cc2CS1(=O)=O`, the melting point fell in the range of 272 to 275 °C.

On to `CCOC(=O)C1CN(CC)c2nc3cc(F)c(F)cc3cc2C1=O` (stereo not drawn), for which the melting point worked out at 152 °C.

Compound `COC(=O)c1c(C)c(N=O)c2ccccn12` registered a melting point of 131 to 132 °C.

As for `Cc1cccc(-c2sc(N)nc2-c2ccnc(-c3ccc(OCC(N)=O)cc3)c2)n1`, the melting point was 191 °C.

`CCCCn1c(-c2ccc(OC)cc2)nc2c3ccccc3ccc21` showed a melting point of 99.5 to 100 °C.

Turning to `CS(=O)(=O)c1ccc(-c2coc(=O)n2-c2ccc(Br)cc2)cc1`, the melting point was in the range of 217 to 219 °C.

Compound `COC(=O)[C@H](Cc1ccc(NC(=O)c2c(C)cccc2Cl)cc1)NC(=O)OC(C)(C)C` displayed a melting point of 154 to 157 °C.

`COc1ccc(C(Cl)Sc2ccc(Cl)cc2)cc1` (stereo not drawn) yielded a melting point of 76 to 77 °C.

The compound `N#CSc1cc2sc(NC(=O)C3CC3)nc2cc1F` returned a melting point of 256 °C.

On to `OCc1cc(Cl)c(F)c(Cl)c1F`, for which the melting point was found to be 55 °C.

As for `O=C(O)C(=O)N1CN(C(=O)c2c(F)cccc2F)C(=O)N(c2ccc(Oc3ccc(C(F)(F)F)cc3Cl)cc2F)C1`, the melting point lay within 67 to 72 °C.

For `CN(C)c1ccc(C2(CN)CCCC2)cc1`, the melting point lay within 87 to 89 °C.

On to `CS(=O)(=O)CCN1CCC2(CC1)CC(=O)c1cc(NS(C)(=O)=O)ccc1O2`, for which the melting point was 250 to 251 °C.

Take `COC(=O)CC[C@H](NC(=O)c1cccc(CCC2CNc3nc(NC(=O)C(C)(C)C)nc(O)c3C2)c1)C(=O)OC` (stereo partly drawn): the melting point was 141 to 148 °C.

Consider `CN1CCN(c2nc3c(cc2F)c(=O)c(C(=O)O)cn3CCF)CC1`, for which the melting point lay within 224 to 226 °C.

Consider `CCCCn1cc([N+](=O)[O-])c(=O)c2cnc(-c3ccncc3)nc21`, for which the melting point was in the range of 240 to 241 °C.

Turning to `Cc1ccc(Oc2ccncc2N)cn1`, the melting point is 74 to 79 °C.

The compound `CCCOc1ccccc1-c1nc2[nH]c(=O)c(=O)[nH]c2c(=O)[nH]1` showed a melting point of 312 to 315 °C.

The compound `O=C(O)/C(=C/c1cnc(CCc2ccccc2)n1Cc1ccc(C(=O)O)cc1)Cc1cccs1` registered a melting point of 214 °C.

On to `N#CC(c1ccccc1)c1cc(Oc2cc(Cl)cc(Cl)c2)c2c(=O)c3ccccc3sc2c1` (stereo not drawn), for which the melting point was 145 to 155 °C.

Take `CC(C)(C)OC(=O)NCC(O)CNC(=O)OC(C)(C)C`: the melting point is 92 °C.

The compound `CC(=O)c1ccc(/C=C(\C)c2ccc3c(c2)C(C)(C)CC3(C)C)cc1` returned a melting point of 130 to 131 °C.

`CC1CCCN1CCCN1CCN(C2CCN(Cc3ccccc3)CC2)C1=C(C#N)C#N` (stereo not drawn) came in with a melting point of 130 to 131 °C.

For `Nc1nc(Cl)c2ncn([C@@H]3C[C@H](O)[C@@](O)(CO)C3)c2n1`, the melting point lay in the range of 217 to 219 °C.

`CCOC(=O)COc1ccc2[nH]ccc2c1` came in with a melting point of 74 to 77 °C.

`Cc1ccc(-c2ccc3c(c2)C=C(C(=O)Nc2ccc(CN4CCCCC4)cc2)CCC3)cc1` yielded a melting point of 192 to 193 °C.

As to `CCOc1nc2c(cnn2CC)nc1C(=O)O`, the melting point lay in the range of 128 to 130 °C.

As for `O=C(O)c1ccc(-c2ccc3ncnc(Nc4ccc(OCc5cccc(F)c5)c(Cl)c4)c3c2)s1`, the melting point was 312 to 314 °C.

On to `CCCn1nc(Cc2ccc(-c3ccccc3S(=O)(=O)NC(=O)c3ccccc3)cc2)c(C(=O)O)c1Cc1ccccc1`, for which the melting point lay within 105 to 109 °C.

With `Clc1ccc(C(Cl)Cl)c(C(Cl)Cl)c1`, the melting point fell in the range of 63 to 64 °C.

As to `Cc1cccc(N2C(=S)SCC2O)n1` (stereo not drawn), the melting point was determined as 128 °C.

`COC(=O)c1ccc(/C=C(\C)c2ccc3c(c2)N(C)CCN3C)cc1` came in with a melting point of 91 to 93 °C.

The compound `CC(C)(C)P(=O)(CCC(=O)O)CCC(=O)O` registered a melting point of 174 °C.

The compound `Cc1cc(C)nc(OC(C(=O)O)C(C)(C)C)n1` (stereo not drawn) displayed a melting point of 167 to 169 °C.

In the case of `COc1ccc(-c2nnc(C)n2-c2ccccc2)cc1`, the melting point was 140 to 141 °C.

`Cc1c(CCNC(=O)OC(C)(C)C)c2cc(S(=O)(=O)c3cc(F)cc(F)c3)ccc2n1C` registered a melting point of 182 to 186 °C.

In turn, `CN(C)c1ccc(F)c(C#N)c1` yielded a melting point of 72 to 72.5 °C.

With `NC(C=Cc1ccccc1)=NO`, the melting point lay in the range of 85 to 87 °C.

Take `CC(C)=CCOc1ccc2c(=O)c(C)c(-c3ccccc3)oc2c1C(=O)C=Cc1cccs1`: the melting point was in the range of 158 to 160 °C.

On to `CN1CCN(Cc2c(-c3cc(C(C)(C)C)c(O)c(C(C)(C)C)c3)nc3n2CCS3)CC1`, for which the melting point is 211 to 212 °C.

Regarding `N#CC1CN1C(=O)c1ccc(Cl)cc1Cl` (stereo not drawn), the melting point lay in the range of 95 to 97 °C.

The compound `CCS(=O)CC(O)(C(=O)Nc1ccc(C#N)c(C(F)(F)F)c1)C(F)(F)F` (stereo not drawn) displayed a melting point of 141 to 143 °C.

As to `NS(=O)(=O)c1ccc(-n2nc(C(F)(F)F)cc2-c2nc3ccccc3s2)cc1`, the melting point fell in the range of 254 to 256 °C.

Consider `O=c1[nH]c2cc(F)c(NCCCC3CCCOC3)cc2o1` (stereo not drawn), for which the melting point lay within 144 to 145 °C.

With `CCCCCCCCCCCCc1cc(N)on1`, the melting point fell in the range of 48.5 to 49.5 °C.

`Cc1cccc(NC(=O)NC2CN(C(=O)C3CCCCC3)c3ccccc3N(c3ccccc3)C2=O)c1` (stereo not drawn) showed a melting point of 165 to 168 °C.

Take `CCNC(=O)Nc1cc(-c2sc(CC)nc2-c2cccc(C)c2)ccn1`: the melting point fell in the range of 160 to 162 °C.

Consider `COCCOCOc1c(C(C)(C)C)cc(-c2ccc(C#N)c(C#N)c2)cc1C(C)(C)C`, for which the melting point was in the range of 130 to 131 °C.

Turning to `CC(=O)C(C(C)=O)C(=O)Nc1ccccc1`, the melting point is 119 to 121 °C.

Regarding `O=C(NC1CCCc2cc(C(=O)Nc3ccncc3)ccc21)OCc1ccccc1` (stereo not drawn), the melting point fell in the range of 157 to 159 °C.

For the compound `Cc1c(C)c2c(c(C)c1O)SC(CCC(N)=O)O2` (stereo not drawn), the melting point lay within 160 to 161 °C.

In turn, `COc1cc(-c2nc3ccc(OCCCCl)cc3n2Cc2ccccc2)cc(OC)c1OC` came in with a melting point of 118 °C.

`Clc1c(Cl)c(Cl)c(CI)c(Cl)c1Cl` displayed a melting point of 138 to 140 °C.

Compound `COc1cc(OCC(=O)O)c(C)cc1SCc1ccc(-c2c(C)cc(C)cc2C)cc1` registered a melting point of 141 °C.

In turn, `C=CCN(CC=C)CC1Oc2c(cc(C)c3[nH]c(=O)ccc23)C1CF` (stereo not drawn) had a melting point of 68 to 71 °C.

The compound `O=C1C(=O)c2ccccc2C2=C1SCC(CN1CCN(c3ccc(F)cc3)CC1)O2` (stereo not drawn) showed a melting point of 180 to 182 °C.

`O=C(Nc1cccc(S(=O)(=O)NCc2ccccc2)c1)c1cnn2c(C(F)F)cc(-c3ccc(C(F)(F)F)cc3)nc12` gave a melting point of 230 °C.

In the case of `O=C(c1ccc(-c2ccncn2)cc1)N1CCN(S(=O)(=O)c2cc3cc(Cl)ccc3[nH]2)CC1`, the melting point was in the range of 229 to 230 °C.
